Data from patent US12545639B2, “3-substituted phenylamidine compounds, preparation and use thereof” (PI INDUSTRIES LTD., priority 2019, dated 2026).

Assays:
Pyricularia oryzae = assay: microbe, parasite or virus in culture; assay type: cell-based; conditions: 168 h, read-out: control compared to the untreated check (radial growth)
Alternaria solani = Alternaria solani (early blight of tomato/potato) in vitro test, radial growth on potato dextrose agar; assay type: cell-based; conditions: 168 h, 300 ppm in potato dextrose agar, 25° C., 60% relative humidity, seven days, read-out: control compared to the untreated check (radial growth)
Colletotrichum capsici = Colletotrichum capsici (anthracnose) in vitro test, radial growth on potato dextrose agar; assay type: cell-based; conditions: Colletotrichum truncatum, 168 h; 300 ppm in potato dextrose agar; 25° C., 60% relative humidity, seven days; read-out: control compared to the untreated check (radial growth)
[1] = system: Septoria lycopersici/Corynespora cassicola (CORYCA); assay: Septoria lycopersici/Corynespora cassicola (CORYCA) (leaf spot of tomato) in vitro test, radial growth on potato dextrose agar; assay type: cell-based; conditions: 168 h, 300 ppm in potato dextrose agar, 25° C., 70% relative humidity, seven days, read-out: control compared to the untreated check (radial growth)
Fusarium culmorum = Fusarium culmorum (foot rot of cereals) in vitro test, radial growth on potato dextrose agar; assay type: cell-based; conditions: 168 h, 300 ppm in potato dextrose agar, 25° C., 60% relative humidity, seven days, read-out: control compared to the untreated check (radial growth)
Protocol: Compounds were dissolved in 0.3% dimethyl sulfoxide and then added to potato dextrose agar medium just prior to dispensing it into petri dishes. 5 mL medium with the compound in the desired concentration was dispensed into 60 mm sterile petri-plates. After solidification each plate was seeded with a 5 mm size mycelial disc taken from the periphery of an actively growing virulent culture plate. Plates were incubated in growth chambers at 25° C. temperature and 60% relative humidity for seven days and then the radial growth was measured and compared to that of the untreated control.

Phakopsora pachyrhizi = Phakopsora pachyrhizi test in soybean, preventive, in vivo on plants; conditions: in Glycine max, read-out: Efficacy (% control), disease severity compared to the untreated check
Rhizoctonia solani = Rhizoctonia solani (rice sheath blight/potato black scurf) in vitro test, radial growth on potato dextrose agar; assay type: cell-based; conditions: 168 h, 300 ppm in potato dextrose agar, 25° C., 60% relative humidity, seven days, read-out: control compared to the untreated check (radial growth)
Botrytis cinerea = Botrytis cinerea (gray mold) in vitro test, radial growth on potato dextrose agar; assay type: cell-based; conditions: 168 h, 300 ppm in potato dextrose agar, 22° C., 90% relative humidity, seven days, read-out: control compared to the untreated check (radial growth)

CCN(C)C=Nc1cc(F)cc(Nc2cc(Cl)ccc2C)c1C [Compound 116, N′-(3-((5-chloro-2-methylphenyl)amino)-5-fluoro-2-methylphenyl)-N-ethyl-N-methylformimidamide]
≥ 70%: inhibition of growth at 300 ppm (Pyricularia oryzae) | inhibition of growth at 300 ppm (Alternaria solani) | inhibition of growth at 300 ppm (Colletotrichum capsici) | inhibition of growth at 300 ppm [1] | inhibition of growth at 300 ppm (Fusarium culmorum) | pest or weed control at 500 ppm (Phakopsora pachyrhizi)

CCN(C)C=Nc1cc(C)cc(Cc2ccccc2Cl)c1Cl [Compound 13, N′-(2-chloro-3-(2-chlorobenzyl)-5-methylphenyl)-N-ethyl-N-methylformimidamide]
≥ 70%: inhibition of growth at 300 ppm (Pyricularia oryzae) | inhibition of growth at 300 ppm (Rhizoctonia solani) | inhibition of growth at 300 ppm (Botrytis cinerea) | inhibition of growth at 300 ppm (Alternaria solani) | inhibition of growth at 300 ppm (Colletotrichum capsici) | inhibition of growth at 300 ppm [1] | inhibition of growth at 300 ppm (Fusarium culmorum)

CCN(C)C=Nc1cc(C)cc(Cc2cccc(Cl)c2F)c1Cl [Compound 56, N′-(2-chloro-3-(3-chloro-2-fluorobenzyl)-5-methylphenyl)-N-ethyl-N-methylformimidamide]
≥ 70%: inhibition of growth at 300 ppm (Pyricularia oryzae) | inhibition of growth at 300 ppm (Rhizoctonia solani) | inhibition of growth at 300 ppm (Botrytis cinerea) | inhibition of growth at 300 ppm (Alternaria solani) | inhibition of growth at 300 ppm (Colletotrichum capsici) | inhibition of growth at 300 ppm [1] | inhibition of growth at 300 ppm (Fusarium culmorum) | pest or weed control at 500 ppm (Phakopsora pachyrhizi)

CCN(C)C=Nc1cc(Cl)cc(Cc2ccc(F)c(F)c2)c1C [Compound 129, N′-(5-chloro-3-(3,4-difluorobenzyl)-2-methylphenyl)-N-ethyl-N-methylformimidamide]
≥ 70%: inhibition of growth at 300 ppm (Pyricularia oryzae) | inhibition of growth at 300 ppm (Rhizoctonia solani) | inhibition of growth at 300 ppm (Botrytis cinerea) | inhibition of growth at 300 ppm (Alternaria solani) | inhibition of growth at 300 ppm (Colletotrichum capsici) | inhibition of growth at 300 ppm [1] | inhibition of growth at 300 ppm (Fusarium culmorum) | pest or weed control at 500 ppm (Phakopsora pachyrhizi)

CCN(C)C=Nc1cc(C)cc(Nc2cccc(F)c2)c1Cl [Compound 35, N′-(2-chloro-3-((3-fluorophenyl)amino)-5-methylphenyl)-N-ethyl-N-methylformimidamide]
≥ 70%: inhibition of growth at 300 ppm (Pyricularia oryzae) | inhibition of growth at 300 ppm (Rhizoctonia solani) | inhibition of growth at 300 ppm (Botrytis cinerea) | inhibition of growth at 300 ppm (Alternaria solani) | inhibition of growth at 300 ppm (Colletotrichum capsici) | inhibition of growth at 300 ppm [1] | inhibition of growth at 300 ppm (Fusarium culmorum)

CCN(C)C=Nc1cc(C)cc(Cc2cccc(F)c2)c1C [Compound 5, N-ethyl-N′-(3-(3-fluorobenzyl)-2,5-dimethylphenyl)-N-methylformimidamide]
≥ 70%: inhibition of growth at 300 ppm (Pyricularia oryzae) | inhibition of growth at 300 ppm (Rhizoctonia solani) | inhibition of growth at 300 ppm (Botrytis cinerea) | inhibition of growth at 300 ppm (Alternaria solani) | inhibition of growth at 300 ppm (Colletotrichum capsici) | inhibition of growth at 300 ppm [1] | inhibition of growth at 300 ppm (Fusarium culmorum)

CCN(C)C=Nc1cc(C)cc(Cc2cccc(Cl)c2)c1C [Compound 3, N′-(3-(3-chlorobenzyl)-2,5-dimethylphenyl)-N-ethyl-N-methylformimidamide]
≥ 70%: inhibition of growth at 300 ppm (Pyricularia oryzae) | inhibition of growth at 300 ppm (Rhizoctonia solani) | inhibition of growth at 300 ppm (Botrytis cinerea) | inhibition of growth at 300 ppm (Alternaria solani) | inhibition of growth at 300 ppm (Colletotrichum capsici) | inhibition of growth at 300 ppm [1] | inhibition of growth at 300 ppm (Fusarium culmorum)

CCN(C)C=Nc1cc(F)cc(Nc2ccc(F)c(F)c2)c1C [Compound 73, N′-(3-((3,4-difluorophenyl)amino)-5-fluoro-2-methylphenyl)-N-ethyl-N-methylformimidamide]
≥ 70%: inhibition of growth at 300 ppm (Pyricularia oryzae) | inhibition of growth at 300 ppm (Rhizoctonia solani) | inhibition of growth at 300 ppm (Botrytis cinerea) | inhibition of growth at 300 ppm (Alternaria solani) | inhibition of growth at 300 ppm (Colletotrichum capsici) | inhibition of growth at 300 ppm [1] | inhibition of growth at 300 ppm (Fusarium culmorum)

CCN(C)C=Nc1cc(C)cc(Nc2ccc(C(C)(C)C)cc2)c1Cl [Compound 25, N′-(3-((4-(tert-butyl)phenyl)amino)-2-chloro-5-methylphenyl)-N-ethyl-N-methylformimidamide]
≥ 70%: inhibition of growth at 300 ppm (Pyricularia oryzae) | inhibition of growth at 300 ppm (Rhizoctonia solani) | inhibition of growth at 300 ppm (Botrytis cinerea) | inhibition of growth at 300 ppm (Alternaria solani) | inhibition of growth at 300 ppm (Colletotrichum capsici) | inhibition of growth at 300 ppm [1] | inhibition of growth at 300 ppm (Fusarium culmorum)

CCN(C)C=Nc1cc(C)cc(Cc2ccc(C)cc2)c1C [Compound 2, N′-(2,5-dimethyl-3-(4-methylbenzyl)phenyl)-N-ethyl-N-methylformimidamide]
≥ 70%: inhibition of growth at 300 ppm (Pyricularia oryzae) | inhibition of growth at 300 ppm (Rhizoctonia solani) | inhibition of growth at 300 ppm (Botrytis cinerea) | inhibition of growth at 300 ppm (Alternaria solani) | inhibition of growth at 300 ppm (Colletotrichum capsici) | inhibition of growth at 300 ppm [1] | inhibition of growth at 300 ppm (Fusarium culmorum)

CCN(C)C=Nc1cc(C)cc(Cc2ccccc2C)c1Cl [Compound 12, N′-(2-chloro-5-methyl-3-(2-methylbenzyl)phenyl)-N-ethyl-N-methylformimidamide]
≥ 70%: inhibition of growth at 300 ppm (Pyricularia oryzae) | inhibition of growth at 300 ppm (Rhizoctonia solani) | inhibition of growth at 300 ppm (Botrytis cinerea) | inhibition of growth at 300 ppm (Alternaria solani) | inhibition of growth at 300 ppm (Colletotrichum capsici) | inhibition of growth at 300 ppm [1] | inhibition of growth at 300 ppm (Fusarium culmorum)

CCN(C)C=Nc1cc(C)cc(N(C)c2cc(C)ccc2Cl)c1Cl [Compound 120, N′-(2-chloro-3-((2-chloro-5-methylphenyl)(methyl)amino)-5-methylphenyl)-N-ethyl-N-methylformimidamide]
≥ 70%: inhibition of growth at 300 ppm (Pyricularia oryzae) | inhibition of growth at 300 ppm (Alternaria solani) | inhibition of growth at 300 ppm (Colletotrichum capsici) | inhibition of growth at 300 ppm [1] | inhibition of growth at 300 ppm (Fusarium culmorum) | pest or weed control at 500 ppm (Phakopsora pachyrhizi)

CCN(C)C=Nc1cc(C)cc(Nc2ccc(F)c(OC)c2)c1Cl [Compound 275, N′-(2-chloro-3-((4-fluoro-3-methoxyphenyl)amino)-5-methylphenyl)-N-ethyl-N-methylformimidamide]
≥ 70%: inhibition of growth at 300 ppm (Pyricularia oryzae) | inhibition of growth at 300 ppm (Rhizoctonia solani) | inhibition of growth at 300 ppm (Alternaria solani) | inhibition of growth at 300 ppm (Colletotrichum capsici) | inhibition of growth at 300 ppm [1] | inhibition of growth at 300 ppm (Fusarium culmorum) | pest or weed control at 500 ppm (Phakopsora pachyrhizi)

CCN(C)C=Nc1cc(Cl)cc(Nc2cccc(Cl)c2)c1C [Compound 163, N′-(5-chloro-3-((3-chlorophenyl)amino)-2-methylphenyl)-N-ethyl-N-methylformimidamide]
≥ 70%: inhibition of growth at 300 ppm (Pyricularia oryzae) | inhibition of growth at 300 ppm (Rhizoctonia solani) | inhibition of growth at 300 ppm (Botrytis cinerea) | inhibition of growth at 300 ppm (Alternaria solani) | inhibition of growth at 300 ppm (Colletotrichum capsici) | inhibition of growth at 300 ppm [1] | inhibition of growth at 300 ppm (Fusarium culmorum)

CCN(C)C=Nc1cc(C)cc(Cc2ccccc2C)c1C [Compound 4, N′-(2,5-dimethyl-3-(2-methylbenzyl)phenyl)-N-ethyl-N-methylformimidamide]
≥ 70%: inhibition of growth at 300 ppm (Pyricularia oryzae) | inhibition of growth at 300 ppm (Rhizoctonia solani) | inhibition of growth at 300 ppm (Botrytis cinerea) | inhibition of growth at 300 ppm (Alternaria solani) | inhibition of growth at 300 ppm (Colletotrichum capsici) | inhibition of growth at 300 ppm [1] | inhibition of growth at 300 ppm (Fusarium culmorum)

CCN(C)C=Nc1cc(Cl)cc(Nc2ccc(OC)cc2)c1C [Compound 162, N′-(5-chloro-3-((4-methoxyphenyl)amino)-2-methylphenyl)-N-ethyl-N-methylformimidamide]
≥ 70%: inhibition of growth at 300 ppm (Pyricularia oryzae) | inhibition of growth at 300 ppm (Rhizoctonia solani) | inhibition of growth at 300 ppm (Alternaria solani) | inhibition of growth at 300 ppm (Colletotrichum capsici) | inhibition of growth at 300 ppm [1] | inhibition of growth at 300 ppm (Fusarium culmorum)
